These results are taken from article PMC8202924, “Emodepside targets SLO-1 channels of Onchocerca ochengi and induces broad anthelmintic effects in a bovine model of onchocerciasis” (PLoS Pathogens, 2021).

The conditions of data set [1]: for Rumen contraction: over four days after treatment, from 1 contraction/min. The text has this: Four non-pregnant, non-lactating cows naturally infected with O. ochengi were purchased from farmers in the Vina Division of the Adamawa Region and acclimatized at the IRAD Wakwa site for two weeks before the start of the trial. Cows were 3–6 years old and weighed 185–300 kg. They were housed in a 35 m^2 enclosure at night and fed with cotton seed cake (2 g/kg bodyweight) in the morning before grazing them on a 1 ha Brachiaria ruziziensis paddock between 9 am and 4 pm daily. Water and salt were supplied ad libitum when housed. Each cow was randomly allocated (by ear-tag number using an online research randomizer [available at https://www.randomizer.org]) to receive a single low dose of emodepside 0.15 mg/kg, a single high dose of emodepside 0.75 mg/kg, a low dose twice (emodepside 0.15 mg/kg on two consecutive days), or vehicle only (solketal). Prior to treatment, the cows were sedated with xylazine hydrochloride (Rompun). Verum or vehicle was administered IV into the jugular vein using a perfusion apparatus (Braun Perfusor Space) following an identical protocol to the Holstein pre-study described above.

Data set [2] is described as follows: Skin concentration of emodepside in the main trial, LC-MS/MS. In kind it is in vivo, zebu (Ngaoundéré Gudali) cattle (B. t. indicus). The procedure:
Bovine samples (EDTA-plasma, skin snips and nodules) were stored at –80°C in Cameroon and shipped according to international transportation guidelines on dry ice to Bayer, Germany. Due to suspected contamination with other pathogens, samples required decontamination. Based on modified WHO guidelines for viral inactivation and reports of virus stability in fluids and solid media issued by the United States Army, decontamination of samples was performed. Samples were thawed slowly in a microbiological safety cabinet and the plasma samples were vortexed gently. Skin snips and nodules were homogenized in a Qiagen TissueLyser II (Qiagen NV, Hilden, the Netherlands) with stainless steel beads. Homogenates were weighed and mixed with 4.5 volumes of a 0.5% collagenase solution (collagenase from Clostridium histolyticum [>125 IU/mg] Merck KGaA, Darmstadt, Germany), then incubated at 37°C with orbital mixing at 140 rpm for 48 h.
Plasma samples, skin and nodule homogenates were precipitated in a 1:10 ratio with acetonitrile using a vortex mixer at 150 rpm for 10 min, then centrifuged for 5 min at 14,000 rpm. The supernatants were pipetted into gas-tight vials and incubated at 80°C for 21 min to achieve a core temperature of 80°C for 10 min, then cooled to 4°C in a water-ice bath. Finally, samples were filtered using a cellulose sterile filter (S&S Spartan 13/30) into standard HPLC vials for liquid chromatography–mass spectrometry analysis. For liquid chromatography on a C18 column, a water/methanol gradient (containing 10 mmol ammonium acetate and 0.1 mL/L formic acid) was used. Quantification of emodepside was performed by tandem mass spectrometry on an API 5500 instrument (AB Sciex, Darmstadt, Germany) using the transition of m/z = 1,120 ([M + H]^+) to its product ion m/z = 343.

The conditions of data set [3]: rat, over four weeks orally in diet; cited from earlier work. The text has this: Blood glucose has been identified as a simple biomarker for emodepside exposure in humans.
The subject of data set [4] is Onchocerca ochengi microfilariae. In words: Dermal microfilarial density in naturally infected cattle. In kind it is in vivo. The settings on record: MRSM, 4 mg/kg every other day for 3 days. As for the experimental part:
By group, the geometric mean Mf load per 100 mg skin ranged from 100 to 500 (Table 1); two animals found to be negative for skin Mf were distributed in different groups. Eighteen preselected nodules per animal were marked with tattoo ink, and their positions were recorded on a hardcopy ‘hide map’ and by digital video [57]. All assessments of drug efficacy were conducted by individuals blinded to the treatment groups. The study was conducted unmasked. All study personnel provided a signed declaration to conduct the study according to the specified protocol. Verum or vehicle was administered as described in the dose confirmation study.
Worms from a second unfixed nodule (at the same timepoints listed above) were subjected to a 3-(4,5-dimethylthiazol-2-yl)-2,5-diphenyltetrazolium bromide (MTT) assay for metabolic activity, in which the insoluble formazan product was dissolved in DMSO and quantified colorimetrically at 620 nm in a microplate reader (model LT4500, Labtech, Heathfield, East Sussex, UK). Finally, dermal microfilarial densities were determined by incubation of skin biopsies (in triplicate per animal per timepoint) and normalized to 100 mg skin [59].

The test system of data set [5] is Onchocerca ochengi adult female worms. In words: Embryogram (uterine contents of female worms from nodules). Conditions: MRSM, 4 mg/kg every other day for 3 days; P = 0.005. In kind it is in vivo. The procedure: (§1) Tattooed nodules were removed under local anesthesia (lidocaine-epinephrine) on study days -1, 90, 180–190, 270–290, 360 and 550 in a randomized order as previously described. Nodules were trimmed of excess tissue and up to four nodules per animal were processed separately as follows: (1) stored frozen at –80°C for PK analysis (up to day 14 only); (2) injected in toto with 10% neutral-buffered formalin and stored at 4°C for histopathology (up to day 290 only); or (3) dissected immediately in phosphate-buffered saline to separate adult male and female worms. The anterior end of the female worm (which even in viable specimens is the only motile part of the parasite) was removed from the worm mass and incubated alongside intact male worms for 30 min at 37°C for visual motility assessment on a three-point scale. The remaining portion of the female worm mass was subjectively scored for fecundity on a four-point scale (0, uteri empty or worm structure degraded; 1, low; 2, intermediate; 3, normal) by examining the uterine contents microscopically in situ. This was followed by a fully quantitative embryogram to enumerate oocytes, embryonic stages and intrauterine Mf as described previously.
The same principle was applied to the analysis of the uterine contents. […] Over all doses and individual animals, an effect size (m) and corresponding statistics were calculated using R’s lm function.

The test system is the same in data set [6]. In words: Ex vivo visual motility assessment of adult female worms from nodules. The format is in vivo. The settings on record: MRSM, 4 mg/kg every other day for 3 days. The procedure:
as §1
The second class of PD endpoint considered was worm motility, which was recorded as a three-class categorical variable and quantified here as a fraction of normal worm motility. First, a linear model of decrease in motility per dose group was established with a study-wide mean motility at day –1: motilitydose_group,t=meanmotilityday−1−slopedose_group*t (5)

Read-outs that look alike come from different tables or passages of the source.

Turning to `CC(C)C[C@H]1C(=O)O[C@H](Cc2ccc(N3CCOCC3)cc2)C(=O)N(C)[C@@H](CC(C)C)C(=O)O[C@H](C)C(=O)N(C)[C@@H](CC(C)C)C(=O)O[C@H](Cc2ccc(N3CCOCC3)cc2)C(=O)N(C)[C@@H](CC(C)C)C(=O)O[C@H](C)C(=O)N1C` [emodepside], in data set [1] (0.15 mg/kg IV, over 1 h following administration), the Adverse effects entry is “mild muscular tremors and salivation”. Further, the values for the Rumen contraction in data set [1] (0.15 mg/kg IV) and in data set [1] (0.75 mg/kg IV) were 1.5 contractions/min and 2 contractions/min, respectively. The compound further returned a Heart rate in data set [1] (0.75 mg/kg IV, 6 h post treatment, increasing from 72 bpm, normal on day 4) of 80 bpm. Moreover, the Blood glucose concentration in data set [1] (0.75 mg/kg IV, 8 h after treatment) was 158 to 200 mg/dL; in data set [1] (0.75 mg/kg IV, by 24 h (within the normal range)), 61 mg/dL. In addition, in data set [1] (0.15 and 0.75 mg/kg IV), the “Temperature and respiratory rates” value is listed as “not affected”. Moreover, the “Median ratio between skin and plasma concentration” value in data set [2] (54 occasions, same study day, all emodepside groups) was 1.1. The “tmax observed in skin” value was 24 h in data set [2] (EMO1L, 0.15 mg/kg IV single dose, animals in order B0696, B0698, B0700, B0730, B0731, B0762) and 24 h in data set [2] (EMO7H, 0.75 mg/kg IV daily for 7 days, animals in order B0404, B0434, B0694, B0695, B0734, B0750, B0765). The no-observed-adverse-effect level in data set [3] is 4 to 5 mg/kg.
For `NCCS[As](SCCN)c1ccc(Nc2nc(N)nc(N)n2)cc1` [melarsomine], the “Mf density over time” value in data set [4] was “complete clearance after one year”. Besides, the “AUC for all embryonic stages” value in data set [5] was “significantly reduced”. Further, the Female worm motility result in data set [6] (by day 90, all nodules) is “reduced to zero”. In addition, the “Fraction of normal adult female worm motility” value was found to be 0% in data set [6] (day 90, n = 7); 0% in data set [6] (day 185, n = 7); 0% in data set [6] (day 275, n = 7); 0% in data set [6] (day 360, n = 2); 0% in data set [6] (day 550, n = 2).
